# Measured values taken from patent US11357814B2, “Application of Sarcococca vagans, Chinese medicinal ointment for treating skin disease, preparation method and application thereof” (priority 2017, dated 2022).
# Assays:
# [1] = test system: capillary permeability of mouse abdominal cavities; test: Inhibition of capillary permeability of mouse abdominal cavities, Evans blue / glacial acetic acid (Effect Example 7); format: in vivo, Kunming mice; conditions: dexamethasone 9.9 ug/kg fed; 580 nm
# Excerpt: Test for Sarcococca […] effect of inhibiting capillary permeability. Roots of Sarcococca […] dried in the sun, and ground to powder for subsequent use. 1. […] 2. Test reagent: Sarcococca […] powder, dexamethasone acetate tablets (Zhejiang Xianju Pharmaceutical Co., Ltd., batch No. 120347), and glacial acetic acid and xylene were both analytically pure. 3. […] After the Sarcococca […] powder was sieved by 120 meshes, a suitable amount of the Sarcococca […] powder was taken and dissolved in a 0.5% sodium carboxymethylcellulose solution, to prepare high-dosage (0.30 g/ml), medium-dosage (0.15 g/ml), and low-dosage (0.075 g/ml) Sarcococca […] powder suspension. The dexamethasone acetate tablets were ground in the 0.5% sodium carboxymethylcellulose solution, to prepare 19.8 ug/ml suspension. […] For each group, the mice were fed twice each day for the first two days, fed once on the third day, after 30 min, the animals in each group were injected with Evans blue saline at 0.1 ml/10 g through tail vein, then were intraperitoneally injected with 0.9% glacial acetic acid, 40 min after the injection, each animal was killed by cervical dislocation, whose abdominal cavity was washed with saline, and a washing liquid was collected, to be adjusted to a volume of 7 ml, centrifuged at 3000 r/min for 5 min, and measured in absorbance at a 580 nm wavelength.
# [2] = test system: xylene-induced mouse ear edema; test: Xylene-induced mouse ear edema (Effect Example 6); format: in vivo, Kunming mice; conditions: dexamethasone 9.9 ug/kg fed
# Excerpt: Influences of Sarcococca […] to xylene-induced mouse ear edema. Roots of Sarcococca […] dried in the sun, and ground to powder for subsequent use. 1. […] Test reagent: Sarcococca […] powder, dexamethasone acetate tablets (Zhejiang Xianju Pharmaceutical Co., Ltd., batch No. 120347), and glacial acetic acid and xylene were both analytically pure. 3. […] After the Sarcococca […] powder was sieved by 120 meshes, a suitable amount of the Sarcococca […] powder was taken and dissolved in a 0.5% sodium carboxymethylcellulose solution, to prepare high-dosage (0.30 g/ml), medium-dosage (0.15 g/ml), and low-dosage (0.075 g/ml) Sarcococca […] powder suspension. The dexamethasone acetate tablets were ground in the 0.5% sodium carboxymethylcellulose solution, to prepare 19.8 ug/ml suspension. […] For each group, the mice were fed twice each day for first two days, once on the third day, and after 30 min, 0.05 ml of xylene was applied to both front and back faces of right ear of each mouse in each group, while left ear was not coated with the medicine as control. 40 min after the coating, the mice were killed by cervical dislocation, the left and right ears were cut off, and ear slices at the same parts of the two ears were taken with a puncher and weighed. The difference between weights of the left and right ears is swelling degree. Each group was recorded, and t test was carried out among the groups. […]
# allergic dermatitis = test: Clinical treatment of allergic skin diseases with ointment (Effect Example 2); format: in vivo, human
# Excerpt: For the purpose of explaining application of the Chinese medicinal ointment provided in the present disclosure for treating allergic skin diseases, for example, treating dermatitis and eczema.
# 1. Subjects: 300 patients were collected clinically, with […] and 131 females, between 19 years old and 68 years old, all of whom suffered from allergic dermatitis.
# (§1) 2. Test grouping: the patients were randomly grouped into 3 groups, 100 patients in each group. The Chinese medicinal ointment prepared in Examples 1-9 was used for the test group, the Chinese medicinal ointment prepared in the comparative example was used for Control Group 1, and another commercially available ointment for treating dermatitis, e.g. Fluocinolone acetonide, was used for Control Group 2. For each patient, the corresponding ointment was applied on affected parts twice a day, for 1 month continuously.
# (§2) 3. Criterion of therapeutic effect:
# Cured: clinical symptoms completely disappear;
# Total effective rate=(cured cases+effective cases)/total cases
# [3] = test system: tinea capitis, tinea corporis, tinea cruris or tinea of feet and hands; test: Clinical treatment of fungal skin diseases with ointment (Effect Example 3); format: in vivo, human
# Excerpt: For the purpose of explaining application of the Chinese medicinal ointment provided in the present disclosure for treating fungal skin diseases, for example, treating tinea capitis, tinea corporis, tinea cruris and tinea of feet and hands.
# 1. Subjects: 150 patients were collected clinically, with 101 males and 49 females, between 16 years old and 65 years old, all of whom suffered from tinea capitis, tinea corporis, tinea cruris or tinea of feet and hands.
# as §1, with “50” for “100”, “tinea corporis,” for “dermatitis,”, “Ketoconazole,” for “Fluocinolone acetonide,”, “2 months” for “1 month”
# as §2
# Cured: Fungi microscopic examination is negative, and tinea and pruritus completely disappear;
# Effective: Fungi microscopic examination is negative, tinea substantially disappears, and pruritus is evidently alleviated;
# Ineffective: Fungi microscopic examination is positive, and tinea and pruritus are not relieved. Total effective rate=(cured cases+effective cases)/total cases
# [4] = cases of 50 patients per group, twice a day for 2 months
smiles,measurement,setting,value
"CC(=O)OCC(=O)[C@@]1(O)[C@H](C)C[C@H]2[C@@H]3CCC4=CC(=O)C=C[C@]4(C)[C@@]3(F)[C@@H](O)C[C@@]21C [Dexamethasone, dexamethasone acetate]",Absorbance (A),[1],0.569 ± 0.238 ^
same,Swelling Degree,[2]; 40 min after xylene,0.0101 ± 0.0034 g
same,Swelling Inhibition Rate,[2]; vs normal group,20.0%
CC1(C)O[C@@H]2C[C@H]3[C@@H]4C[C@H](F)C5=CC(=O)C=C[C@]5(C)[C@@]4(F)[C@@H](O)C[C@]3(C)[C@]2(C(=O)CO)O1 [Fluocinolone acetonide],Total Effective Rate,"allergic dermatitis; (cured cases+effective cases)/total cases, twice a day for 1 month",77%
same,Cured,"allergic dermatitis; cases of 100 patients per group, applied twice a day for 1 month, clinical symptoms completely disappear",40
same,Ineffective,"allergic dermatitis; cases of 100 patients per group, twice a day for 1 month",23
same,Effective,"allergic dermatitis; cases of 100 patients per group, twice a day for 1 month, symptoms evidently improved",37
CC(=O)N1CCN(c2ccc(OCC3COC(Cn4ccnc4)(c4ccc(Cl)cc4Cl)O3)cc2)CC1 (centres unmarked) [Ketoconazole],Total Effective Rate,"[3]; (cured cases+effective cases)/total cases, twice a day for 2 months",74%
same,Cured,"[3]; cases of 50 patients per group, applied twice a day for 2 months, fungi microscopic examination negative, tinea and pruritus completely disappear",16
same,Effective,[3]; [4],21
same,Ineffective,[3]; [4],13
